Experimental data published in patent US11364248B2 (AMGEN INC., priority 2017, dated 2022).

Each molecule was assayed on OPM-2 (assay: Cell Viability Assay (OPM-2 10 FBS)). Conditions: OPM-2 cells, 16 h, CellTiter-Glo, read-out: OPM-2 10% FBS IC50 IP.
Assay type: cell-based, human
Protocol: Cell Viability Assay (OPM-2 10 FBS)
The human multiple myeloma cell line, OPM-2, was cultured in complete growth medium containing RPMI 1640 and 10% fetal bovine serum (FBS). Cells were seeded into 384-well plates at 3000 cells/well density in complete growth medium containing 10% FBS, and incubated for 16 h with serially diluted test compounds in a 37° C. incubator with 5% CO2. Cell viability was tested using CellTiter-Glo® assay (Promega, Madison, Wis.) according to the manufacturer recommendations. Luminescence was determined using an EnVision® Multilabel plate reader 25 min after the addition of detection reagent. IC50 values were then calculated with Xlfit using a logistical 4-parameter fit model in GraphPad Prism (GraphPad Software, San Diego, Calif.) or in Genedata Screener® (Genedata, Basel, Switzerland).

Q: How did the IC50 turn out when `COCC[C@@H]1[C@@H](C)CCC[C@H]([C@H]2OC[C@@H](N(C)C)CO2)[C@@H]2CC[C@H]2CN2C[C@@]3(CCCc4cc(Cl)ccc43)COc3ccc(cc32)C(=O)NS1(=O)=O` (stereo in doubt) [Example 83] was run?
A: Its IC50 is 540 nM.

Q: With `C[C@@H]1[C@@H](C)CCC[C@H]([C@H]2OC[C@@H](N(C)C)CO2)[C@@H]2CC[C@H]2CN2C[C@@]3(CCCc4cc(Cl)ccc43)COc3ccc(nc32)C(=O)NS1(=O)=O` (stereo in doubt) [Example 93, (1S,3′R,6′R,7′S,11′S,12′R)-6-chloro-7′-(cis-5-(dimethylamino)-1,3-dioxan-2-yl)-11′,12′-dimethyl-3,4-dihydro-2H,15′H-spiro[naphthalene-1,22′-[20]oxo[13]thia[1,14,25]triazatetracyclo [14.7.2.0~3,6~.0~19,24~]pentacosa[16,18,24]trien]-15′-one 13′,13′-dioxide] as the molecule, how does the IC50 read?
A: Its IC50 is 34 nM.

Q: With `C[C@@H]1[C@@H](C)CCC[C@H]([C@H]2OC[C@@H](N(C)C)CO2)[C@@H]2CC[C@H]2CN2C[C@@]3(CCCc4cc(Cl)ccc43)COc3ccc(nc32)C(=O)NS1(=O)=O` (stereo in doubt) [Example 94] as the molecule, how does the IC50 read?
A: The IC50 was 257 nM.

Q: How did the IC50 turn out when `C[C@@H]1[C@@H](C)CCC[C@H]([C@H]2OC[C@@H](N(C)C)CO2)[C@@H]2CC[C@H]2CN2C[C@@]3(CCCc4cc(Cl)ccc43)COc3ccc(nc32)C(=O)NS1(=O)=O` (stereo in doubt) [Example 95] was run?
A: The IC50 was 108 nM.

Q: Which IC50 does the source give for `C[C@@H]1[C@@H](C)CCC[C@H]([C@H]2OC[C@@H](N3CCC3)CO2)[C@@H]2CC[C@H]2CN2C[C@@]3(CCCc4cc(Cl)ccc43)COc3ccc(cc32)C(=O)NS1(=O)=O` [Example 20, (1S,3′R,6′R,7′S,11′S,12′R)-7′-(cis-5-(1-azetidinyl)-1,3-dioxan-2-yl)-6-chloro-11′,12′-dimethyl-3,4-dihydro-2H,15′H-spiro[naphthalene-1,22′-[20]oxa[13]thia[1,14]diazatetracyclo [14.7.2.0~3,6~.0~19,24~]pentacosa[16,18,24]trien]-15′-one 13′,13′-dioxide] here?
A: Its IC50 is 41 nM.

Q: `C[C@@H]1[C@@H](C)CCC[C@H]([C@H]2OC[C@@H](N3CCC3)CO2)[C@@H]2CC[C@H]2CN2C[C@@]3(CCCc4cc(Cl)ccc43)COc3ccc(cc32)C(=O)NS1(=O)=O` [Example 21, (1S,3′R,6′R,7′S,11′S,12′R)-7′-(cis-5-(1-azetidinyl)-1,3-dioxan-2-yl)-6-chloro-11′,12′-dimethyl-3,4-dihydro-2H,15′H-spiro[naphthalene-1,22′-[20]oxa[13]thia[1,14]diazatetracyclo [14.7.2.0~3,6~.0~19,24~]pentacosa[16,18,24]trien]-15′-one 13′,13′-dioxide] was tested. Which IC50 did it give?
A: The IC50 was 521 nM.

Q: For `C[C@@H]1[C@@H](C)CCC[C@H]([C@H]2OC[C@@H](N3CC(F)(F)C3)CO2)[C@@H]2CC[C@H]2CN2C[C@@]3(CCCc4cc(Cl)ccc43)COc3ccc(cc32)C(=O)NS1(=O)=O` [Example 31, (1S,3′R,6′R,7′S,11′S,12′R)-6-chloro-7′-(cis-5-(3,3-difluoro-1-azetidinyl)-1,3-dioxan-2-yl)-11′,12′-dimethyl-3,4-dihydro-2H,15′H-spiro[naphthalene-1,22′-[20]oxa[13]thia[1,14]diazatetracyclo [14.7.2.0~3,6~.0~19,24~]pentacosa[16,18,24]trien]-15′-one 13′,13′-dioxide], which IC50 is on record?
A: The IC50 was 204 nM.

Q: `C[C@@H]1[C@@H](C)CCC[C@H]([C@H]2OC[C@@H](N3CC(F)(F)C3)CO2)[C@@H]2CC[C@H]2CN2C[C@@]3(CCCc4cc(Cl)ccc43)COc3ccc(cc32)C(=O)NS1(=O)=O` [Example 32, (1S,3′R,6′R,7′S,11′S,12′R)-6-chloro-7′-(cis-5-(3,3-difluoro-1-azetidinyl)-1,3-dioxan-2-yl)-11′,12′-dimethyl-3,4-dihydro-2H,15′H-spiro[naphthalene-1,22′-[20]oxa[13]thia[1,14]diazatetracyclo [14.7.2.0~3,6~.0~19,24~]pentacosa[16,18,24]trien]-15′-one 13′,13′-dioxide] was tested. Which IC50 did it give?
A: The IC50 was 1940 nM.

Q: `COC1CN([C@H]2CO[C@@H]([C@H]3CCC[C@H](C)[C@@H](C)S(=O)(=O)NC(=O)c4ccc5c(c4)N(C[C@@H]4CC[C@H]43)C[C@@]3(CCCc4cc(Cl)ccc43)CO5)OC2)C1` [Example 52, (1S,3′R,6′R,7′S,11′S,12′R)-6-chloro-7′-(cis-5-(3-methoxy-1-azetidinyl)-1,3-dioxan-2-yl)-11′,12′-dimethyl-3,4-dihydro-2H,15′H-spiro[naphthalene-1,22′-[20]oxa[13]thia[1,14]diazatetracyclo [14.7.2.0~3,6~.0~19,24~]pentacosa[16,18,24]trien]-15′-one 13′,13′-dioxide] was tested. Which IC50 did it give?
A: Its IC50 is 59 nM.

Q: How did the IC50 turn out when `COC1CN([C@H]2CO[C@@H]([C@H]3CCC[C@H](C)[C@@H](C)S(=O)(=O)NC(=O)c4ccc5c(c4)N(C[C@@H]4CC[C@H]43)C[C@@]3(CCCc4cc(Cl)ccc43)CO5)OC2)C1` [Example 53, (1S,3′R,6′R,7′S,11′S,12′R)-6-chloro-7′-(cis-5-(3-methoxy-1-azetidinyl)-1,3-dioxan-2-yl)-11′,12′-dimethyl-3,4-dihydro-2H,15′H-spiro[naphthalene-1,22′-[20]oxa[13]thia[1,14]diazatetracyclo [14.7.2.0~3,6~.0~19,24~]pentacosa[16,18,24]trien]-15′-one 13′,13′-dioxide] was run?
A: Its IC50 is 184 nM.

Q: With `COC1CN([C@H]2CO[C@@H]([C@H]3CCC[C@H](C)[C@@H](C)S(=O)(=O)NC(=O)c4ccc5c(c4)N(C[C@@H]4CC[C@H]43)C[C@@]3(CCCc4cc(Cl)ccc43)CO5)OC2)C1` [Example 54, (1S,3′R,6′R,7′S,11′S,12′R)-6-chloro-7′-(cis-5-(3-methoxy-1-azetidinyl)-1,3-dioxan-2-yl)-11′,12′-dimethyl-3,4-dihydro-2H,15′H-spiro[naphthalene-1,22′-[20]oxa[13]thia[1,14]diazatetracyclo [14.7.2.0~3,6~.0~19,24~]pentacosa[16,18,24]trien]-15′-one 13′,13′-dioxide] as the molecule, how does the IC50 read?
A: The IC50 was 547 nM.

Q: For `CCN(CC)[C@H]1CO[C@@H]([C@H]2CCC[C@H](C)[C@@H](C)S(=O)(=O)NC(=O)c3ccc4c(c3)N(C[C@@H]3CC[C@H]32)C[C@@]2(CCCc3cc(Cl)ccc32)CO4)OC1` [Example 57, (1S,3′R,6′R,7′S,11′S,12′R)-6-chloro-7′-(cis-5-(diethylamino)-1,3-dioxan-2-yl)-11′,12′-dimethyl-3,4-dihydro-2H,15′H-spiro[naphthalene-1,22′-[20]oxa[13]thia[1,14]diazatetracyclo [14.7.2.0~3,6~.0~19,24~]pentacosa[16,18,24]trien]-15′-one 13′,13′-dioxide], which IC50 is on record?
A: Its IC50 is 164 nM.

Q: For `CCN(CC)[C@H]1CO[C@@H]([C@H]2CCC[C@H](C)[C@@H](C)S(=O)(=O)NC(=O)c3ccc4c(c3)N(C[C@@H]3CC[C@H]32)C[C@@]2(CCCc3cc(Cl)ccc32)CO4)OC1` [Example 58, (1S,3′R,6′R,7′S,11′S,12′R)-6-chloro-7′-(cis-5-(diethylamino)-1,3-dioxan-2-yl)-11′,12′-dimethyl-3,4-dihydro-2H,15′H-spiro[naphthalene-1,22′-[20]oxa[13]thia[1,14]diazatetracyclo [14.7.2.0~3,6~.0~19,24~]pentacosa[16,18,24]trien]-15′-one 13′,13′-dioxide], which IC50 is on record?
A: The IC50 was 512 nM.

Q: How did the IC50 turn out when `C[C@@H]1[C@@H](C)CCC[C@H]([C@H]2OC[C@@H](N3CC(N(C)C)C3)CO2)[C@@H]2CC[C@H]2CN2C[C@@]3(CCCc4cc(Cl)ccc43)COc3ccc(cc32)C(=O)NS1(=O)=O` [Example 67, (1S,3′R,6′R,7′S,11′S,12′R)-6-chloro-7′-(cis-5-(3-(dimethylamino)-1-azetidinyl)-1,3-dioxan-2-yl)-11′,12′-dimethyl-3,4-dihydro-2H,15′H-spiro[naphthalene-1,22′-[20]oxa[13]thia[1,14]diazatetracyclo [14.7.2.0~3,6~.0~19,24~]pentacosa[16,18,24]trien]-15′-one 13′,13′-dioxide] was run?
A: The IC50 was 220 nM.

Q: With `C[C@@H]1[C@@H](C)CCC[C@H]([C@H]2OC[C@@H](N3CC(N(C)C)C3)CO2)[C@@H]2CC[C@H]2CN2C[C@@]3(CCCc4cc(Cl)ccc43)COc3ccc(cc32)C(=O)NS1(=O)=O` [Example 68, (1S,3′R,6′R,7′S,11′S,12′R)-6-chloro-7′-(cis-5-(3-(dimethylamino)-1-azetidinyl)-1,3-dioxan-2-yl)-11′,12′-dimethyl-3,4-dihydro-2H,15′H-spiro[naphthalene-1,22′-[20]oxa[13]thia[1,14]diazatetracyclo [14.7.2.0~3,6~.0~19,24~]pentacosa[16,18,24]trien]-15′-one 13′,13′-dioxide] as the molecule, how does the IC50 read?
A: Its IC50 is 517 nM.

Q: Which IC50 does the source give for `COCC[C@@H]1[C@@H](C)CCC[C@H]([C@H]2OC[C@@H](N(C)C)CO2)[C@@H]2CC[C@H]2CN2C[C@@]3(CCCc4cc(Cl)ccc43)COc3ccc(cc32)C(=O)NS1(=O)=O` [Example 82, (1S,3′R,6′R,7′S,11′S,12′R)-6-chloro-7′-(cis-5-(dimethylamino)-1,3-dioxan-2-yl)-12′-(2-methoxyethyl)-11′-methyl-3,4-dihydro-2H,15′H-spiro[naphthalene-1,22′-[20]oxa[13]thia[1,14]diazatetracyclo [14.7.2.0~3,6~.0~19,24~]pentacosa[16,18,24]trien]-15′-one 13′,13′-dioxide] here?
A: Its IC50 is 33 nM.

Q: `C[C@@H]1CS(=O)(=O)NC(=O)c2ccc3c(c2)N(C[C@@H]2CC[C@H]2[C@@H]([C@H]2OC[C@@H](N(C)C)CO2)CC[C@@H]1C)C[C@@]1(CCCc2cc(Cl)ccc21)CO3` [Example 84, (1S,3′R,6′R,7′S,10′S,11′S)-6-chloro-7′-(cis-5-(dimethylamino)-1,3-dioxan-2-yl)-10′,11′-dimethyl-3,4-dihydro-2H,15′H-spiro[naphthalene-1,22′-[20]oxa[13]thia[1,14]diazatetracyclo [14.7.2.0~3,6~.0~19,24~]pentacosa[16,18,24]trien]-15′-one 13′,13′-dioxide] was tested. Which IC50 did it give?
A: The IC50 was 145 nM.
